Assay results from patent US20200253979A1, “THERAPEUTIC METHODS RELATING TO HSP90 INHIBITORS” (AI Therapeutics, Inc., priority 2017, published 2020).
pEC50: −log10 of the molar value.

Assays:
[1] = tested on: PD-L1 on primary AML patient samples; assay: PD-L1 cell surface expression by flow cytometry; assay type: cell-based, human; details: 24 hours
Procedure: To study whether MPC-0767 blocks IFN-γ-induced PD-L1 expression, six AML patient samples harboring FLT3 WT (n=2) or FLT3-ITD (n=4) were treated with human IFN-γ (50 ng/ml) alone, MPC-0767 (1 μM) alone or the combination of the two for 24 hours. Cells were then harvested to assess PD-L1 cell surface expression by flow cytometry. Cells were also stained with the AML blast markers CD34 or CD45 (to gate on the blast population) and a viability stain to gate on viable cells.

[2] = tested on: EGFR wild type (WT) in BaF3 cells; assay: Cell surface EGFR expression in BaF3 cells by flow cytometry; assay type: cell-based, murine; details: Mus musculus; BaF3, 24 hours; read-out: EC50 for reduction of cell surface EGFR WT
From the text: (§1) To determine whether MPC-0767 can also promote degradation of an EGFR exon20ins mutant, the BaF3 murine cell line was used (Warmuth et al., Curr Opin Oncol., 200719: 55-60). This cell line is dependent upon exogenous IL-3 for survival/growth but upon introduction of an oncogene, the cells no longer depend on exogenous IL-3, and instead survival is driven by the introduced oncogene. Thus, drugs that target the introduced oncogene will reduce BaF3 cell viability providing a mechanism to screen small molecules against relevant oncogenic mutations that arise in the clinic.
(§2) BaF3 cells harboring EGFR wild type (WT) or EGFR exon20 V769_D770insASV mutant were treated with increasing concentrations of MPC-0767 for 24 hours. After this time, cells were harvested for flow cytometry to assess cell surface EGFR expression (antibody for detection recognized both WT and mutant proteins). […] We further tested whether this finding translated to reduced survival in BaF3 cells expressing the EGFR mutant. Parental BaF3 cells (no mutant) or cells harboring EGFR exon20 V769_D770insASV were treated with increasing concentrations of MPC-0767 for 72 hours after which cell viability was determined using CellTiter-Glo®.

[3] = tested on: EGFR exon20 V769_D770insASV mutant in BaF3 cells; assay: as above; assay type: cell-based, murine; details: Mus musculus; BaF3, 24 hours; read-out: EC50 for reduction of cell surface EGFR exon20 V769_D770insASV mutant
From the text: as §1, §2

[4] = tested on: MOLM-13 FLT3-ITD AML cell line; assay: Systemic survival xenograft study, MPC-0767 single agent; details: vs vehicle
Procedure: Statistical significance was calculated using Log Rank (Mantel-Cox) test.
Before tumor cell inoculation, NOD/SCID mice were pre-treated for 2 days with a daily intraperitoneal injection of 100 mg/kg cyclophosphamide to facilitate engraftment of the human MOLM-13 tumor cells. After the injection of cyclophosphamide, the animals were allowed to recover for 24 hours prior to inoculation with human MOLM-13 tumor cells. Each mouse was then inoculated with 1×10^7 MOLM-13 cells in 100 μL PBS via intravenous tail vein injection. Mice were next randomized into 3 groups of 6. […] Viability and body weight loss were monitored daily.

[5] = tested on: mutant EGFR on the cell surface of PC-9 cells; assay: Cell surface EGFR by flow cytometry; assay type: cell-based; details: PC-9, 1 μM, 24 hours
Procedure: (§3) FIG. 3A-B: MPC-0767 reduces cell surface EGFR expression in H1975 cells (A) and PC-9 cells (B). Cells were treated with MPC-0767 (1 μM) for 24 hours before being harvested and cell expression of EGFR determined by flow cytometry.
(§4) These findings confirm that MPC-0767 targets and degrades EGFR in lung cancer cell lines.

[6] = tested on: mutant EGFR on the cell surface of H1975 cells; assay: Cell surface EGFR by flow cytometry; assay type: cell-based; details: H1975, 1 μM, 24 hours
Procedure: as §3, §4

OCIAML3 cells = assay: CellTiter-Glo cell viability; assay type: cell-based; details: OCIAML3, 72 h
ML2 cells = assay: CellTiter-Glo cell viability (single agent and combination)
Procedure: To determine whether MPC-0767 is efficacious against non-FLT3-ITD AML cells, we tested a panel of FLT3-wild type (FLT3-WT) AML cell lines and primary AML blasts for sensitivity to MPC-0767. Cells were treated with MPC-0767 for 72 hours before determining cell viability using the CellTiter-Glo® assay. […] To test whether the combination of MPC-0767 was synergistic with ATO, we tested a panel of AML cell lines. The cell lines include those harboring FLT3-ITD (MOLM-13, MOLM-14 and MV-4-11) or FLT3 WT (ME-1, THP-1, OCI-AML-2, HL60, NOMO-1, TUR and ML-2).

H1975 cells = assay: 7-AAD / annexin V cell death staining; assay type: cell-based; details: 0.7 μM, 72 hours
Procedure: To verify the mechanism of the loss of cell viability, H1975 cells were treated with MPC-0767 (0.7 μM) for 72 hours. After this time, cells were stained with 7-amino-actinomycin D (7-AAD) and annexin V, markers of cell membrane integrity and of apoptosis, respectively.

[7] = tested on: T-cell populations within MC38 tumors; assay: Effector/regulatory T-cell ratio in MC38 tumors; assay type: in vivo, mouse; details: 150 mg/kg QD×7
Procedure: To test if MPC-0767 may induce an anti-tumor immune response in addition to direct cytotoxic activity, down regulation of PD-Ll and the effector/regulatory T-cell ratio was measured in the same MC38 syngeneic model. On day 21, when the average tumor volume was 372 mm^3 in size, a second group of mice (n=6) was treated with 150 mg/kg MPC-0767 QD×7. One day post the last dose (day 28 post inoculation) tumors were harvested from the vehicle and 150 mg/kg MPC-0767 QD×7 group. Tumor infiltrating leukocytes (CD45^+, CD3^−) within the dissociated tumors were analyzed for PD-L1 expression by flow cytometry.

[8] = tested on: primary AML samples harboring FLT3-ITD; assay: Annexin V / 7AAD cell death by flow cytometry; assay type: cell-based, human; details: increasing concentrations, 72 hours, 4 primary samples
Procedure: To test whether the anti-leukemic effect of MPC-0767 is due to induction of cell death, 4 primary AML samples (all harboring FLT3-ITD) were treated with increasing concentrations of MPC-0767 for 72 hours. Samples were then processed for quantification by flow cytometry of cells positive for annexin V and 7AAD. These markers allow the detection of cell death, specifically dead (7AAD only positive), early apoptotic (annexin V only positive) or late stage apoptotic/necrotic (7AAD and annexin V positive) populations were combined to give a readout of cell death.

[9] = tested on: cell surface FLT3 in MV-4-11 cells; assay: Cell surface FLT3 by flow cytometry; assay type: cell-based; details: MV-4-11, 1 μM, 24 hours
Procedure: To determine whether MPC-0767 can promote the degradation of FLT3-ITD and abolish downstream signaling, MV-4-11 and MOLM-13 cells were treated with vehicle or MPC-0767 (1 μM) for 24 hours. Cells were harvested for flow cytometry to assess cell surface FLT3 protein abundance. In addition, the measurement of a key phosphorylation site of S6 (phospho-S6) was used as a marker for oncogenic FLT3-ITD signaling (Zimmerman et al., Blood. 2013 122(22): 3607-3615). Indeed, in both MV-4-11 and MOLM-13 cells treated with MPC-0767 there was a >65% reduction in cell surface FLT3 (FIGS. 10A and 10B, respectively) and >70% reduction in phospho-S6 (FIGS. 10C and 10D, respectively).

MOLM-13-LUC cells = assay: CellTiter-Glo cell viability; assay type: cell-based; details: Homo sapiens, 72 hours
From the text: In the clinic, tyrosine kinase inhibitors that target FLT3 initially show positive responses, but patients inevitably relapse due to the development of drug-resistance through various mechanisms, as discussed above.

C[C@H](N)C(=O)O[C@@H](C)C(=O)N1CCC(CCn2c(Sc3cc4c(cc3Br)OCO4)nc3c(N)ncnc32)CC1 [MPC-0767]
basal PD-L1 cell surface expression ([1]; MPC-0767 1 μM alone): did not significantly reduce basal PD-L1 cell surface expression
IFN-γ-induced PD-L1 cell surface expression ([1]; MPC-0767 1 μM with IFN-γ 50 ng/ml, P=0.04): significantly reduced the IFN-γ-induced PD-L1 cell surface expression
pEC50 [2]: 6.00
pEC50 [3]: 6.70
increase in median survival ([4]; 75 mg/kg once a day): 1.5 days
increase in median survival ([4]; 150 mg/kg once a day): 10 days
mutant EGFR on the cell surface [5]: decreased
mutant EGFR on the cell surface [6]: decreased
pEC50 (OCIAML3 cells; Homo sapiens, OCI-AML-3): 5.74
MPC-0767 Sensitivity (OCIAML3 cells): Resistant (EC50 values above 1 μM considered resistant)
pEC50 (ML2 cells; Homo sapiens, ML-2, 72 h): 5.99
MPC-0767 Sensitivity (ML2 cells; ML2, 72 h): Resistant (EC50 values above 1 μM considered resistant)
percentage of cells displaying markers of cell death (H1975 cells): increase
percentage of viable cells (7-AAD negative and annexin V negative) (H1975 cells): decrease
CD4:TREG ratio [7]: significant increase
CD8:TREG ratio [7]: significant increase
cell death (annexin V and/or 7AAD positive) [8]: dose-dependent increase in cell death
reduction in cell surface FLT3 [9]: > 65%
pEC50 (MOLM-13-LUC cells): 6.30
